From ChEMBL document CHEMBL1201862, “PubChem BioAssay data set” (2004)
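Following 48 hours of exposure in 96-well plates, responses at five concentrations were used to interpolate endpoints linearly. GI50 is the concentration that inhibits growth by half.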 Active and inactive are the calls of the source. No stated cut-off is given here; in the data, active = GI50 up to about 1.1 µM and inactive = higher.

Assays:
Test in all cases: inhibition of tumour cell growth, NCI panel, 48 h
LOX IMVI = tested on: LOX IMVI
HT-29 = tested on: HT-29
RPMI-8226 = tested on: RPMI-8226
M14 = tested on: M14
IGROV-1 = tested on: IGROV-1
KM12 = tested on: KM12
K562 = tested on: K562
EKVX = tested on: EKVX
CAKI-1 = tested on: CAKI-1
U-251 = tested on: U-251
SF-539 = tested on: SF-539
HCC 2998 = tested on: HCC 2998
HCT-15 = tested on: HCT-15
RXF 393 = tested on: RXF 393
SR = tested on: SR

Row | Compound | GI50 (LOX IMVI) | GI50 (HT-29) | GI50 (RPMI-8226) | GI50 (M14) | GI50 (IGROV-1) | GI50 (KM12) | GI50 (K562) | GI50 (EKVX) | GI50 (CAKI-1) | GI50 (U-251) | GI50 (SF-539) | GI50 (HCC 2998) | GI50 (HCT-15) | GI50 (RXF 393) | GI50 (SR)
1 | O=C(/N=N/C(=O)OCc1ccccc1)OCc1ccccc1 | > 100 µM (inactive) | > 100 µM (inactive) | 53.2 µM (inactive) | > 100 µM (inactive) | > 100 µM (inactive) | 88.3 µM (inactive) | 63.5 µM (inactive) | > 100 µM (inactive) | 49.8 µM (inactive) | 83.8 µM (inactive) | > 100 µM (inactive) | > 100 µM (inactive) | 94.2 µM | > 100 µM (inactive) | –
2 | CC(C)C(=O)/C=C/c1ccccc1 | 83.6 µM (inactive) | 53.5 µM (inactive) | 37.1 µM (inactive) | > 100 µM (inactive) | > 100 µM (inactive) | 69.7 µM (inactive) | 33.7 µM (inactive) | – | – | 61.2 µM (inactive) | > 100 µM (inactive) | > 100 µM (inactive) | – | > 100 µM (inactive) | 31.2 µM (inactive)
3 | CC(=O)N1CCC(=O)/C(=C/c2ccccc2)C1 | 16.1 µM (inactive) | 20.3 µM (inactive) | 42.7 µM (inactive) | 33.8 µM (inactive) | 19.8 µM (inactive) | 24.3 µM (inactive) | 37.8 µM (inactive) | – | 15.5 µM (inactive) | 17.1 µM (inactive) | 23.3 µM (inactive) | 33.1 µM (inactive) | 17.1 µM | 22.8 µM (inactive) | 24.5 µM (inactive)
4 | COC(=O)[C@@H]1Cc2c([nH]c3ccccc23)[C@H](c2ccccc2)N1 | 38.9 µM (inactive) | 49.3 µM (inactive) | – | 25.6 µM (inactive) | 22.8 µM (inactive) | 36.6 µM (inactive) | 45.2 µM (inactive) | 44.2 µM (inactive) | 60.5 µM (inactive) | 47.8 µM (inactive) | 26.4 µM (inactive) | 31.2 µM (inactive) | 19.4 µM | – | 29.2 µM (inactive)
5 | COc1ccc2nc(NC(=O)C(=O)C(C#N)c3ccc(Cl)c(Cl)c3)sc2c1 (centres undefined) | > 100 µM (inactive) | > 100 µM (inactive) | > 100 µM (inactive) | > 100 µM (inactive) | > 100 µM (inactive) | > 100 µM (inactive) | > 100 µM (inactive) | 88.9 µM (inactive) | > 100 µM (inactive) | > 100 µM (inactive) | 63.4 µM (inactive) | – | > 100 µM | 52.2 µM (inactive) | –
6 | CCC(C(=O)c1ccccc1)C(CCCC(=O)Nc1c(C)cccc1C)N=O (centres undefined) | – | > 100 µM (inactive) | > 100 µM (inactive) | > 100 µM (inactive) | > 100 µM (inactive) | > 100 µM (inactive) | > 100 µM (inactive) | > 100 µM (inactive) | > 100 µM (inactive) | > 100 µM (inactive) | > 100 µM (inactive) | > 100 µM (inactive) | > 100 µM | – | > 100 µM (inactive)
7 | CCSC(=O)C1(C)OC2CCCCC2C1=O (centres undefined) | – | – | > 100 µM (inactive) | > 100 µM (inactive) | > 100 µM (inactive) | > 100 µM (inactive) | > 100 µM (inactive) | – | > 100 µM (inactive) | > 100 µM (inactive) | > 100 µM (inactive) | > 100 µM (inactive) | > 100 µM | > 100 µM (inactive) | > 100 µM (inactive)
8 | CC1=C(C(=O)Nc2ccccc2)C(c2ccc(Cl)c(Cl)c2)C(C(=O)Nc2ccccc2)=C(C)N1 | 14.2 µM (inactive) | 12.2 µM (inactive) | – | 11.5 µM (inactive) | 14.5 µM (inactive) | 13 µM (inactive) | – | 16.6 µM (inactive) | – | 14.5 µM (inactive) | 17.3 µM (inactive) | – | 10.9 µM | 8.61 µM (inactive) | –
9 | CSc1nnc(CCC(=O)Nc2c(C)cccc2C)o1 | > 100 µM (inactive) | > 100 µM (inactive) | > 100 µM (inactive) | > 100 µM (inactive) | > 100 µM (inactive) | > 100 µM (inactive) | > 100 µM (inactive) | > 100 µM (inactive) | > 100 µM (inactive) | > 100 µM (inactive) | > 100 µM (inactive) | > 100 µM (inactive) | 50.8 µM | > 100 µM (inactive) | –
10 | CCOC(=O)/C(=C/c1ccc(C#N)cc1)N(CC)CC | > 100 µM (inactive) | > 100 µM (inactive) | > 100 µM (inactive) | > 100 µM (inactive) | > 100 µM (inactive) | > 100 µM (inactive) | > 100 µM (inactive) | > 100 µM (inactive) | > 100 µM (inactive) | > 100 µM (inactive) | > 100 µM (inactive) | > 100 µM (inactive) | > 100 µM | – | > 100 µM (inactive)
11 | CCOC(=O)/C([O-])=C(\C(=O)OCC)[n+]1c(C)n(C)c2ccccc21 | > 100 µM (inactive) | > 100 µM (inactive) | > 100 µM (inactive) | > 100 µM (inactive) | > 100 µM (inactive) | > 100 µM (inactive) | > 100 µM (inactive) | > 100 µM (inactive) | > 100 µM (inactive) | > 100 µM (inactive) | > 100 µM (inactive) | > 100 µM (inactive) | – | > 100 µM (inactive) | –
12 | O=C(c1ccc(O)cc1)C1c2c3c(cc(O)c2C(c2ccc(O)cc2)C1c1cc(O)cc(O)c1)OC(c1ccc(O)cc1)C3c1cc2c(cc1O)OC(c1ccc(O)cc1)C2c1cc(O)cc(O)c1 (centres undefined) | > 12.5 µM (inactive) | – | > 12.5 µM (inactive) | > 12.5 µM (inactive) | – | > 12.5 µM (inactive) | > 12.5 µM (inactive) | > 12.5 µM (inactive) | > 12.5 µM (inactive) | > 12.5 µM (inactive) | > 12.5 µM (inactive) | > 12.5 µM (inactive) | > 12.5 µM | – | > 12.5 µM (inactive)
13 | CC(C)=CCC/C(C)=C/CC/C(C)=C/C1CCC(=O)C1(C)C (centres undefined) | 15.3 µM (inactive) | 17.5 µM (inactive) | 20 µM (inactive) | 19.5 µM (inactive) | 19.1 µM (inactive) | 16.3 µM (inactive) | 19.8 µM (inactive) | 19.7 µM (inactive) | 20.7 µM (inactive) | 18.1 µM (inactive) | 19.5 µM (inactive) | 22.9 µM (inactive) | 15.5 µM | 22.1 µM (inactive) | 19.7 µM (inactive)
14 | CC(c1cccc2ccccc12)/[N+]([O-])=C/c1ccccc1 (centres undefined) | > 100 µM (inactive) | > 100 µM (inactive) | 58.3 µM (inactive) | – | > 100 µM (inactive) | > 100 µM (inactive) | > 100 µM (inactive) | 70.8 µM (inactive) | – | > 100 µM (inactive) | > 100 µM (inactive) | > 100 µM (inactive) | – | > 100 µM (inactive) | –
15 | N#C/C(=C\c1ccc(O)cc1O)C(N)=O | > 100 µM (inactive) | 29.8 µM (inactive) | 55.6 µM (inactive) | 82.2 µM (inactive) | > 100 µM (inactive) | > 100 µM (inactive) | > 100 µM (inactive) | > 100 µM (inactive) | 58.1 µM (inactive) | > 100 µM (inactive) | > 100 µM (inactive) | > 100 µM (inactive) | > 100 µM | 20.5 µM (inactive) | –
